Experimental data from US20150133547A1, “METHOD AND COMPOSITION FOR TREATING GLAUCOMA” (priority 2013, published 2015).

Assays:
[1] = test system: guinea pigs; conditions: cited from earlier work
[2] = test system: canine subjects; experiment: Intraocular pressure (IOP) in canine subjects after topical LC drops, iCARE rebound tonometer; assay type: in vivo
Protocol: Preparations: The desired composition was DMSO 4.0%, PG 3.0% and LC 10 mg/ml (1% (by weight)), based upon the total composition.
A vehicle was prepared for use as a subsequent dilution (serial dilutions of the initial LC strength), by mixing 4.65 ml of BSS, 0.2 ml of DMSO, and 0.15 ml of PG, to yield a diluent vehicle comprising 4.0% DMSO and 3.0% PG, based upon the total composition. A total of 5 ml was prepared.
Methodology: Inventive compositions were prepared by simple mixing.
IOP was determined using an iCARE® rebound tonometer. Other commercially available IOP measuring devices (tonometers) may also be used.
Progressive dilutions of the composition set forth in Table 1 are shown in Table 2, below, starting with the original 2.5 ml volume preparation of Table 1. These subsequent dilutions were used in the canine experiments set forth below.
The experiments were conducted on canine subjects. Canine subjects have IOP's that are the same (˜10-20 mm/Hg) as that of a human subject. Canines and humans share a common susceptibility gene, SRBD1, for glaucoma risk. Consequently, canines are excellent surrogates to assess the results of the use of the inventive compositions on humans. The results of the experiments are set forth in Table 3, below, reflecting the concentration range of LC used as 0.002% to 0.100% (by weight).
Additional efficacy and safety experiments were conducted using an LC concentration of 0.600% (by weight) in the same animal model. This additional data confirms in two animals the safety and efficacy of topical LC in reducing intraocular pressure.
A series of experiments was run in the same canine model, using LC concentrations, prepared as above, and ranging from 0.200% to 0.700% (by weight).

[3] = cited from earlier work
[4] = test system: rats; conditions: cited from earlier work
[5] = cited from earlier work; remark: listed apart in the source
[6] = cited from earlier work; remark: listed apart in the source
[7] = test system: canine subjects; experiment: Adverse events in canine subjects after topical LC (daily ophthalmic examinations, toxicology studies of blood)
[8] = test system: rabbits; conditions: cited from earlier work
[9] = test system: Humans; conditions: handling of pure or concentrated lambda-cyhalothrin; cited from earlier work
[10] = Example 2, canine, topical LC 0.600%, Day 1, drop 9:30, IOP at 9:55
[11] = Example 2, canine, topical LC 0.600%, Day 1, drop 12:00, IOP at 12:30
[12] = Example 2, canine, topical LC 0.600%, Day 3, drop 9:45, IOP at 10:15
[13] = Example 2, canine, topical LC 0.600%, Day 3, drop 12:10, IOP at 12:40
[14] = Example 3, canine, topical LC 0.200%, Day 2, drop 7:40, IOP at 8:45
[15] = Example 3, canine, topical LC 0.300%, Day 3, drop 7:25, IOP at 7:25
[16] = Example 3, canine, topical LC 0.300%, Day 3, drop 12:25, IOP at 13:50
[17] = Example 3, canine, topical LC 0.300%, Day 3, drop 17:40, IOP at 17:30
[18] = Example 3, canine, topical LC 0.400%, Day 4, drop 7:25, IOP at 7:20
[19] = Example 3, canine, topical LC 0.400%, Day 4, drop 12:40, IOP at 12:35
[20] = Example 3, canine, topical LC 0.400%, Day 4, drop 17:25, IOP at 17:20
[21] = Example 3, canine, topical LC 0.500%, Day 5, drop 7:30, IOP at 7:20
[22] = Example 3, canine, topical LC 0.500%, Day 5, drop 12:40, IOP at 12:35
[23] = Example 3, canine, topical LC 0.600%, Day 8, drop 7:30, IOP at 7:00
[24] = Example 3, canine, topical LC 0.600%, Day 8, drop 12:05, IOP at 12:00
[25] = Example 3, canine, topical LC 0.600%, Day 8, drop 17:00, IOP at 16:30
[26] = Example 3, canine, topical LC 0.700%, Day 9, drop 7:05, IOP at 7:00
[27] = Example 3, canine, topical LC 0.700%, Day 9, drop 12:25, IOP at 12:20
[28] = Example 3, canine, topical LC 0.700%, Day 9, drop 17:05, IOP at 17:00
[29] = canine, topical LC 0.002%, Day 4, drop 8:30, IOP at 9:50
[30] = canine, topical LC 0.002%, Day 5, drop 9:00, IOP at 9:50
[31] = canine, topical LC 0.002%, Day 5, drop 14:30, IOP at 15:00
[32] = canine, topical LC 0.020%, Day 7, drop 9:00, IOP at 9:30
[33] = canine, topical LC 0.020%, Day 7, drop 15:00, IOP at 16:00
[34] = canine, topical LC 0.050%, Day 9, drop 9:00, IOP at 9:30
[35] = canine, topical LC 0.050%, Day 9, drop 15:00, IOP at 16:00
[36] = canine, topical LC 0.100%, Day 11, drop 9:00, IOP at 9:42
[37] = canine, topical LC 0.100%, Day 11, drop 15:00, IOP at 15:22

CC1(C)C(/C=C(\Cl)C(F)(F)F)C1C(=O)OC(C#N)c1cccc(Oc2ccccc2)c1 [LC, (R)-cyano(3-phenoxyphenyl) methyl (1S,3S)-rel-3-[(1Z)-2-chloro-3,3,3-trifluoro-1-propenyl]-2,2-dimethyl cyclopropane carboxylate]
skin sensitivity in guinea pigs [1]: no skin sensitivity
reduction in intraocular pressure after topical administration ([2]; Example 1, canine, 0.002% to 0.100% (by weight), dose related): significant reduction
IOP OD [2, 10]: 8
IOP OS [2, 10]: 7
IOP OD [2, 11]: 8
IOP OS [2, 11]: 8
IOP OD [2, 12]: 6
IOP OS [2, 12]: 7
IOP OD [2, 13]: 7
IOP OS [2, 13]: 7
IOP OD [2, 14]: 8
IOP OS [2, 14]: 7
IOP OD [2, 15]: 13
IOP OS [2, 15]: 10
IOP OD [2, 16]: 6
IOP OS [2, 16]: 7
IOP OD [2, 17]: 9
IOP OS [2, 17]: 8
IOP OD [2, 18]: 12
IOP OS [2, 18]: 11
IOP OD [2, 19]: 7
IOP OS [2, 19]: 7
IOP OD [2, 20]: 7
IOP OS [2, 20]: 7
IOP OD [2, 21]: 9
IOP OS [2, 21]: 10
IOP OD [2, 22]: 7
IOP OS [2, 22]: 7
IOP OD [2, 23]: 7
IOP OS [2, 23]: 7
IOP OD [2, 24]: 6
IOP OS [2, 24]: 6
IOP OD [2, 25]: 7
IOP OS [2, 25]: 8
IOP OD [2, 26]: 8
IOP OS [2, 26]: 7
IOP OD [2, 27]: 7
IOP OS [2, 27]: 7
IOP OD [2, 28]: 6
IOP OS [2, 28]: 5
persistence of the reduction of intra-ocular pressure ([2]; after exposure): hours to days
reduction of IOP ([2]; canine, dosages ranging from 0.002% to 0.700% LC (by weight), overall): 35-40%
IOP OD (intraocular pressure right eye) [2, 29]: 8
IOP OS (intraocular pressure left eye) [2, 29]: 8
IOP OD (intraocular pressure right eye) [2, 30]: 8
IOP OS (intraocular pressure left eye) [2, 30]: 8
IOP OD (intraocular pressure right eye) [2, 31]: 8
IOP OS (intraocular pressure left eye) [2, 31]: 9
IOP OD (intraocular pressure right eye) [2, 32]: 10
IOP OS (intraocular pressure left eye) [2, 32]: 9
IOP OD (intraocular pressure right eye) [2, 33]: 10
IOP OS (intraocular pressure left eye) [2, 33]: 7
IOP OD (intraocular pressure right eye) [2, 34]: 11
IOP OS (intraocular pressure left eye) [2, 34]: 11
IOP OD (intraocular pressure right eye) [2, 35]: 7
IOP OS (intraocular pressure left eye) [2, 35]: 8
IOP OD (intraocular pressure right eye) [2, 36]: 9
IOP OS (intraocular pressure left eye) [2, 36]: 10
IOP OD (intraocular pressure right eye) [2, 37]: 11
IOP OS (intraocular pressure left eye) [2, 37]: 5
EPA toxicity class, eye effects [3]: moderately toxic
EPA toxicity class, skin effects for rats [4]: moderately toxic
EPA toxicity class when inhaled [5]: moderately toxic
water solubility [6]: low
local or systemic adverse events ([7]; Example 1, daily complete ophthalmic examinations and toxicology studies of blood): no local or systemic adverse events
AE ([7]; Example 2, topical LC 0.600%, Day 1, drop 9:30): 0
AE ([7]; Example 2, topical LC 0.600%, Day 1, drop 12:00): 0
AE ([7]; Example 2, topical LC 0.600%, Day 3, drop 9:45): 0
AE ([7]; Example 2, topical LC 0.600%, Day 3, drop 12:10): 0
AE ([7]; Example 3, topical LC 0.200%, Day 2, drop 7:40): 0
AE ([7]; Example 3, topical LC 0.200%, Day 2, drop 12:22): 0
AE ([7]; Example 3, topical LC 0.200%, Day 2, drop 17:05): 0
AE ([7]; Example 3, topical LC 0.300%, Day 3, drop 7:25): 0
AE ([7]; Example 3, topical LC 0.300%, Day 3, drop 12:25): 0
AE ([7]; Example 3, topical LC 0.300%, Day 3, drop 17:40): 0
AE ([7]; Example 3, topical LC 0.400%, Day 4, drop 7:25): 0
AE ([7]; Example 3, topical LC 0.400%, Day 4, drop 12:40): 0
AE ([7]; Example 3, topical LC 0.400%, Day 4, drop 17:25): 0
AE ([7]; Example 3, topical LC 0.500%, Day 5, drop 7:30): 0
AE ([7]; Example 3, topical LC 0.500%, Day 5, drop 12:40): 0
AE ([7]; Example 3, topical LC 0.600%, Day 8, drop 7:30): 0
AE ([7]; Example 3, topical LC 0.600%, Day 8, drop 12:05): 0
AE ([7]; Example 3, topical LC 0.600%, Day 8, drop 17:00): 0
AE ([7]; Example 3, topical LC 0.700%, Day 9, drop 7:05): 0
AE ([7]; Example 3, topical LC 0.700%, Day 9, drop 12:25): 1
AE ([7]; Example 3, topical LC 0.700%, Day 9, drop 17:05): 1
adverse events at doses other than 0.700% ([7]; topical 0.002% to 0.600% LC): No adverse events
adverse events at the 0.700% dose ([7]; topical 0.700% LC): minimal, reversible inferior conjunctival hyperemia
AE (adverse event) ([7]; topical LC 0.002%, Day 4, drop 8:30): 0
AE (adverse event) ([7]; topical LC 0.002%, Day 5, drop 9:00): 0
AE (adverse event) ([7]; topical LC 0.002%, Day 5, drop 14:30): 0
AE (adverse event) ([7]; topical LC 0.020%, Day 7, drop 9:00): 0
AE (adverse event) ([7]; topical LC 0.020%, Day 7, drop 15:00): 0
AE (adverse event) ([7]; topical LC 0.050%, Day 9, drop 9:00): 0
AE (adverse event) ([7]; topical LC 0.050%, Day 9, drop 15:00): 0
AE (adverse event) ([7]; topical LC 0.100%, Day 11, drop 9:00): 0
AE (adverse event) ([7]; topical LC 0.100%, Day 11, drop 15:00): 0
toxicity in skin effects for rabbits [8]: low toxicity
onset of symptoms after exposure [9]: ≤ 30 min
symptoms reported on exposure [9]: facial tingling and burning
